Tests used:
[1] = Blood biochemical examination; assay type: in vivo, miniature swine (Gottingen)
Description: Blood for biochemical examination was centrifuged at 3,000 rpm at 4° C. for 15 min to obtain serum samples used to measure AST, ALT, ALP, total protein (TP), albumin (Alb), protein fraction (alb), alpha 1 globulin (α1-glb), alpha 2 globulin (α-glb), beta globulin (β-glb), gamma globulin (γ-glb), albumin/globulin ratio (A/G), total bilirubin (T-Bil), urea nitrogen (UN), creatinine (CRE), glucose (Glu), total cholesterol (T-Cho), triglycerides (TG), sodium, potassium, chloride, calcium, inorganic phosphate (IP), and C-reactive protein (CRP).

[2] = in vivo
Description: All animals were weighed with a digital platform scale (DUE600ST/M3s-A, Mettler Toledo Ltd.) on the day of operation, 5 days post-operation, and the day of autopsy.
Food consumption was checked every day. Any remaining amount of food was weighed with a digital platform scale (DUE600ST/ID3s-A, Mettler Toledo Ltd.) when present. If there was no uneaten diet, food consumption was recorded as 500 g.

[3] = set-up: species or system miniature swine (Gottingen); settings: in vivo
Description: Blood for hematological examination was collected by catheter on the day of operation, 3 days after operation, and 7 days after operation, and the day of necropsy. Blood was collected into EDTA-2K coated blood collection tubes (VP-DK052K05, TERUMO Ltd.). Red blood cell count (RBC), white blood cell count (WBC), hemoglobin concentration (HGB), hematocrit (HCT), and platelet count (PLT) were measured using a multi-channel blood cell counter (Sysmex K-4500, Sysmex

CC(=O)N[C@@H](CCCNC(=N)N)C(=O)N[C@@H](C)C(=O)N[C@@H](CC(=O)O)C(=O)N[C@@H](C)C(=O)N[C@@H](CCCNC(=N)N)C(=O)N[C@@H](C)C(=O)N[C@@H](CC(=O)O)C(=O)N[C@@H](C)C(=O)N[C@@H](CCCNC(=N)N)C(=O)N[C@@H](C)C(=O)N[C@@H](CC(=O)O)C(=O)N[C@@H](C)C(=O)N[C@@H](CCCNC(=N)N)C(=O)N[C@@H](C)C(=O)N[C@@H](CC(=O)O)C(=O)N[C@@H](C)C(N)=O [RADA16, Ac-(RADA)4-CONH2]
CRE ([1]; AD3: 3 days after treatment, per animal and Mean (n=3)): 1.12 mg/dL
CRP change ([1]; in vivo): elevated level of CRP
body weight and food intake [2]: generally maintained
general condition [2]: good general condition
WBC change [3]: elevated level of WBC

From patent US20140329914A1, “Amphiphilic Peptides for Thoracic Air Leakage Occlusion” (3-D Matrix Ltd., priority 2011, published 2014)
